Assay results: US11529344B2, “EZH2 inhibitor combination therapies” (Pfizer Inc., priority 2017, dated 2022)
pIC50: −log10 of the molar value.

Columns and labels:
[1] = tested on: EZH2 (H3K27Me3 levels) in DMS114 SCLC cells containing wild-type EZH2; assay: cells; conditions: Homo sapiens, DMS-114, 72 h, read-out: H3K27Me3 IC50 ± SD (nM) (n)
Protocol: SCLC cell line DMS114 was obtained from American Type Culture Collection (American Type Culture Collection, ATCC CRL-2066) and cultured in Waymouth's Medium MB 752/1 (Gibco/Life Technologies Cat. 11220-035), plus 10% Fetal Bovine Serum (FBS) (Gibco/Life Technologies Cat. 10082-147) and 1% Pen/Strep. […] All cells were maintained in a humidified incubator at 37° C. with 5% carbon dioxide (CO2).
Cells were plated at 1500 cells per well in 96-well black, flat, clear-bottom plates (Falcon, BD-353219). The following day, compounds were added to the wells at 3-fold dilution with a final concentration range from 3 μM to 0.1 nM, leaving some cells empty for controls: “DMSO only (1st and 2nd antibody)” and “DMSO only (2nd antibody only)”. […] After 2 hours, the secondary antibody was removed, the plates were washed again 5 times in PBST for 5 minutes each and then fluorescent signal was detected on an Odyssey LiCoR instrument (focus length 3 mm; using both 800 nm (for secondary) and 700 nm filters together (for DRAQ5). IC50 values were calculated using a four-parameter fit with GraphPad Prism version 7.02 and arithmetic mean of all biological replicates was calculated.
EZH2 inhibitor activity was determined in the cells by measurement of the relative amount of cellular H3K27Me3 levels.

[2] = tested on: H841 SCLC cells; assay: Cell growth inhibition assay, H841 SCLC cells; assay type: cell-based; conditions: NCI-H841, 504 h; H841 cell line, 21 days of treatment; read-out: inhibition of cell proliferation, mean IC50
Protocol: (§1) COR-L88 (92031917) cells were purchased from ECACC. […] No. 1565565).
(§2) H841, H446 and H69 cells were plated in their recommended complete culture medium described above (1 mL/well) in triplicate 12 well plates for each cell line at a density of 100,000 cells per well. Plates were incubated overnight at 37° C. and 5% CO2. Compound 1 stock was prepared at 50 mM in DMSO and was dispensed to several single-use aliquots and stored at −20° C. To prepare the compound plate, Compound 1 was diluted to 3 mM in DMSO and then 3-fold serial dilution were made in DMSO (10 doses in total). […] On Day 21, cell morphology was observed under microscope and any morphology changes upon compound treatment were recorded. […] Cell viability was measured using according to manufacturer's instructions.
(§3) Based on the strong activity observed with Compound 1 in DMS114 cells (see example 1 above), the antiproliferative activity of Compound 1 was also tested in 3 additional SCLC cell lines, namely H841, H446 and H69 using the cell proliferation assay described above. Each cell line was treated with different concentrations of Compound 1 using a 10-point dose curve (1:3 dilution in DMSO) with 3 μM to 0.1 nM for 21 days and then assessed for cell viability. […]

[3] = tested on: H69 SCLC cells; assay: Cell growth inhibition assay, H69 SCLC cells; assay type: cell-based; conditions: Homo sapiens, NCI-H69, 504 h; H69 cell line, 21 days of treatment; read-out: inhibition of cell proliferation, mean IC50
Protocol: as §1, §2, §3

SMILES: COc1cc(C)[nH]c(=O)c1CN1CCc2c(Cl)cc([C@H](OC)C3COC3)c(Cl)c2C1=O [Compound 1, 5,8-dichloro-2-[(4-methoxy-6-methyl-2-oxo-1,2-dihydro-pyridin-3-yl)methyl]-7-[(R)-methoxy(oxetan-3-yl)methyl]-3,4-dihydroisoquinolin-1(2H)-one]
- IC50 [1]: 9.48 nM
- pIC50 [2]: 7.14
- pIC50 [3]: 6.65
